Test [1] addresses T1, myeloperoxidase (Homo sapiens, UniProt P05164).
T1 sequence (P05164 49-745): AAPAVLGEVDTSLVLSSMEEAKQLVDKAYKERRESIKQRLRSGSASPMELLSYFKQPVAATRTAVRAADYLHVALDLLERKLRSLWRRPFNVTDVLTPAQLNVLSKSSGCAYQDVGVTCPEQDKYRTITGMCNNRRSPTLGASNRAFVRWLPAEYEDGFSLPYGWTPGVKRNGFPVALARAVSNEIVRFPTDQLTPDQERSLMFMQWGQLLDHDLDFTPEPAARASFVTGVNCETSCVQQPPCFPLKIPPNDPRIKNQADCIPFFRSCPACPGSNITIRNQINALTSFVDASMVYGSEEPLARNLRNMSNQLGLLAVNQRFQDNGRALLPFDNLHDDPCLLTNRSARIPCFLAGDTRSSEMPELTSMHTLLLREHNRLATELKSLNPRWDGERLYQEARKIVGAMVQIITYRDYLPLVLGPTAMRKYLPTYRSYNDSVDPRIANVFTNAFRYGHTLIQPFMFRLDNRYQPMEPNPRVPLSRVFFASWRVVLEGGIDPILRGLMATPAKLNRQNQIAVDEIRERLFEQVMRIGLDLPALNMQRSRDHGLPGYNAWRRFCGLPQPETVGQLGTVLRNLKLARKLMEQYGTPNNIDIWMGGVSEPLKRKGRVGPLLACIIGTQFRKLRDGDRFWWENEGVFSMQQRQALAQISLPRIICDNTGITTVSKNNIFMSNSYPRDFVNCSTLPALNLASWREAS
Kind of test: MPO Peroxidation Assay (Amplex Red Assay). Type of test: biochemical. As to conditions: potency range class, read-out: Amplex Red Assay IC50 value.

The target in test [2] is T1, myeloperoxidase. Kind of test: MPO Chlorination Assay (APF Assay). It counts as biochemical. As to conditions: potency range class, read-out: APF Assay IC50 value.

As a reminder, the IC50 is the concentration that inhibits the measured activity by half.

In the case of `Nc1cc(C(CCN[C@H]2CCc3ccc(F)cc32)c2ccccc2)c2nn[nH]c2n1` (stereo partly drawn) [Example 57, 7-(3-{[(1S)-6-fluoro-2,3-dihydro-1H-inden-1-yl]amino}-1-phenylpropyl)-3H-[1,2,3]triazolo[4,5-b]pyridin-5-amine], the figures for the IC50 in test [1] and in test [2] were 101 to 999 nM and 1 to 100 nM, respectively.
Turning to `Nc1cc(C(CCNCc2ccccc2Cc2ccc3c(c2)CCCC3)c2ccccc2)c2nn[nH]c2n1` (centres unmarked) [Example 78, 7-{1-phenyl-3-[({2-[(5,6,7,8-tetrahydronaphthalen-2-yl)methyl]phenyl}methyl)amino]propyl}-3H-[1,2,3] triazolo[4,5-b] pyridin-5-amine], the figures for the IC50 in test [1] and in test [2] were 101 to 999 nM and 1 to 100 nM, respectively.
As to `Nc1cc(C(CCNC(c2ccccc2)C(F)(F)F)c2ccccc2)c2nn[nH]c2n1` (centres unmarked) [Example 24, 7-{1-phenyl-3-[(2,2,2-trifluoro-1-phenylethyl)amino]propyl}-3H-[1,2,3]triazolo[4,5-b]pyridin-5-amine], the results for the IC50 in test [1] and in test [2] were 101 to 999 nM and 1000 to 10000 nM, respectively.
With `Nc1cc(C(CCNC2CCCc3ccccc32)c2ccccc2)c2nn[nH]c2n1` (centres unmarked) [Example 25, 7-{1-phenyl-3-[(1,2,3,4-tetrahydronaphthalen-1-yl)amino]propyl}-3H-[1,2,3] triazolo[4,5-b] pyridin-5-amine], the IC50 in test [1] is 101 to 999 nM; in test [2] it was 1 to 100 nM.
`Nc1cc(C(CCN[C@@H]2CCc3c(Cl)cc(Cl)cc32)c2ccccc2)c2nn[nH]c2n1` (stereo partly drawn) [Example 123, 7-(3-{[(1R)-4,6-dichloro-2,3-dihydro-1H-inden-1-yl]amino}-1-phenylpropyl)-3H-[1,2,3]triazolo[4,5-b]pyridin-5-amine]: the IC50 in test [1] and in test [2] was 101 to 999 nM throughout.
With `Nc1cc(C(CCN[C@H]2CC[C@H](c3ccccc3)CC2)c2cccc(OC(F)F)c2)c2nn[nH]c2n1` (stereo partly drawn) [Example 166, 7-{1-[3-(difluoromethoxy)phenyl]-3-{[(trans)-4-phenylcyclohexyl]amino}propyl}-3H-[1,2,3]triazolo[4,5-b]pyridin-5-amine], the IC50 in test [1] lay in the range of 101 to 999 nM; in test [2], 1 to 100 nM.
In the case of `CC1C[C@H](NCCC(c2ccccc2)c2cc(N)nc3[nH]nnc23)c2ccccc21` (stereo partly drawn) [Example 95, 7-(3-{[(1S)-3-methyl-2,3-dihydro-1H-inden-1-yl]amino}-1-phenylpropyl)-3H-[1,2,3]triazolo[4,5-b]pyridin-5-amine], the concentration for half-maximal inhibition (IC50) was in the range of 101 to 999 nM in test [1] and 1 to 100 nM in test [2].
Consider `Nc1cc(C(CCN[C@H]2C[C@H](c3ccccc3)Cc3ccccc32)c2ccccc2)c2nn[nH]c2n1` (stereo partly drawn) [Example 82, 7-(1-phenyl-3-{[(1S,3R)-3-phenyl-1,2,3,4-tetrahydronaphthalen-1-yl]amino}propyl)-3H-[1,2,3]triazolo [4,5-b]pyridin-5-amine], for which the concentration for half-maximal inhibition (IC50) in test [1] was 1000 to 10000 nM; in test [2], 1 to 100 nM.
Take `Nc1cc([C@H](Cc2nc3ccccc3o2)c2ccccc2)c2nn[nH]c2n1` [Example 240, (R)-7-(2-(benzo[d]oxazol-2-yl)-1-phenylethyl)-3H-[1,2,3]triazolo[4,5-b]pyridin-5-amine]: the IC50 in test [1] and in test [2] was 101 to 999 nM throughout.
With `Nc1cc(C(CCN[C@@H]2CC[C@@H](c3ccccc3)C[C@@H]2CO)c2ccccc2)c2nn[nH]c2n1` (stereo partly drawn) [Example 180, [(1S,2R,5R)-2-[(3-{5-amino-3H-[1,2,3]triazolo[4,5-b]pyridin-7-yl}-3-phenylpropyl)amino]-5-phenylcyclohexyl] methanol], the IC50 in test [1] was 101 to 999 nM; in test [2], 1 to 100 nM.
For `CC(C)(Cc1ccccc1)NCCC(c1ccccc1)c1cc(N)nc2[nH]nnc12` (centres unmarked) [Example 119, 7-{3-[(2-methyl-1-phenylpropan-2-yl)amino]-1-phenylpropyl}-3H-[1,2,3]triazolo [4,5-b]pyridin-5-amine] the same measures were 101 to 999 nM and 1 to 100 nM.
`N#Cc1ccc(C(CCN[C@H]2CC[C@H](c3ccccc3)CC2)c2cc(N)nc3[nH]nnc23)cc1` (stereo partly drawn) [Example 159, 4-(1-{5-amino-3H-[1,2,3]triazolo [4,5-b]pyridin-7-yl}-3-{[(trans)-4-phenylcyclohexyl]amino}propyl) benzonitrile]: the 50% inhibitory concentration (IC50) in test [1] was 101 to 999 nM; in test [2], 1000 to 10000 nM.
Consider `Nc1cc(C(CNCC(F)(F)c2ccccc2)c2ccccc2)c2nn[nH]c2n1` (centres unmarked) [Example 226, 7-(2-((2,2-difluoro-2-phenylethyl)amino)-1-phenylethyl)-3H-[1,2,3]triazolo[4,5-b]pyridin-5-amine], for which the IC50 in test [1] and in test [2] was 101 to 999 nM in each case.
Turning to `Nc1cc([C@H](CCCN2CCC(c3cccc(C(F)(F)F)c3)C(O)C2)c2ccccc2)c2nn[nH]c2n1` (stereo partly drawn) [Example 220, 1-[(4R)-4-{5-amino-3H-[1,2,3]triazolo [4,5-b]pyridin-7-yl}-4-phenylbutyl]-4-[3-(trifluoromethyl)phenyl]piperidin-3-ol], the concentration for half-maximal inhibition (IC50) in test [1] and in test [2] was 101 to 999 nM throughout.
`NCc1ccc(C(CCN[C@H]2CC[C@H](c3ccccc3)CC2)c2cc(N)nc3[nH]nnc23)cc1` (stereo partly drawn) [Example 160, 7-{1-[4-(aminomethyl)phenyl]-3-{[(trans)-4-phenylcyclohexyl]amino}propyl}-3H-[1,2,3]triazolo[4,5-b]pyridin-5-amine]: the IC50 was in the range of 101 to 999 nM in test [1] and 1000 to 10000 nM in test [2].
Take `Nc1cc(C(CCN[C@H]2CC[C@@H](c3ccc(=O)[nH]c3)CC2)c2ccccc2)c2nn[nH]c2n1` (stereo partly drawn) [Example 133, 5-[(cis)-4-[(3-{5-amino-3H-[1,2,3]triazolo[4,5-b]pyridin-7-yl}-3-phenylpropyl)amino]cyclohexyl]-1,2-dihydropyridin-2-one]: the IC50 in test [1] and in test [2] was 101 to 999 nM throughout.
Take `Nc1cc(C(Cc2ccccc2F)c2ccccc2)c2nn[nH]c2n1` (single isomer, unassigned) [Example 9, 7-(2-(2-fluorophenyl)-1-phenylethyl)-3H-[1,2,3]triazolo[4,5-b]pyridin-5-amine]: the IC50 in test [1] and in test [2] was 101 to 999 nM throughout.
In the case of `Nc1cc(C(CCN[C@@H]2CCc3cc(F)ccc32)c2ccccc2)c2nn[nH]c2n1` (stereo partly drawn) [Example 61, 7-(3-{[(1R)-5-fluoro-2,3-dihydro-1H-inden-1-yl]amino}-1-phenylpropyl)-3H-[1,2,3]triazolo[4,5-b]pyridin-5-amine], the IC50 in test [1] and in test [2] was 101 to 999 nM throughout.
Regarding `Nc1cc(C(CCNCc2cccc(C(F)(F)F)c2)c2ccccc2)c2nn[nH]c2n1` (centres unmarked) [Example 53, 7-[1-phenyl-3-({[3-(trifluoromethyl)phenyl]methyl}amino)propyl]-3H-[1,2,3]triazolo[4,5-b]pyridin-5-amine], the half-maximal inhibitory concentration (IC50) in test [1] and in test [2] was 101 to 999 nM each time.
For `Nc1cc([C@H](CCN(CC(F)F)C23CCC(c4ccccc4)(CC2)CC3)c2ccccc2)c2nn[nH]c2n1` [Example 197, 7-[(1R)-3-[(2,2-difluoroethyl)({4-phenylbicyclo[2.2.2]octan-1-yl})amino]-1-phenylpropyl]-3H-[1,2,3]triazolo[4,5-b]pyridin-5-amine], the figures for the half-maximal inhibitory concentration (IC50) in test [1] and in test [2] were 101 to 999 nM and 1 to 100 nM, respectively.
On to `Nc1cc([C@H](CCN(CC2CCCO2)C23CCC(c4ccccc4)(CC2)CC3)c2ccccc2)c2nn[nH]c2n1` (stereo partly drawn) [Example 195, 7-[(1R)-3-{[(oxolan-2-yl)methyl]({4-phenylbicyclo [2.2.2]octan-1-yl})amino}-1-phenylpropyl]-3H-[1,2,3]triazolo[4,5-b]pyridin-5-amine], for which the 50% inhibitory concentration (IC50) in test [1] lay within 101 to 999 nM; in test [2] it was 1 to 100 nM.
Take `Nc1cc(C(CCNC2CCCc3ccccc32)c2ccccc2)c2nn[nH]c2n1` (centres unmarked) [Example 29, 7-{1-phenyl-3-[(1,2,3,4-tetrahydronaphthalen-1-yl)amino]propyl}-3H-[1,2,3]triazolo [4,5-b]pyridin-5-amine]: the concentration for half-maximal inhibition (IC50) in test [1] and in test [2] was 1 to 100 nM in each case.
As to `Nc1cc(C(CCN[C@H]2CC[C@@H](c3ccncc3)CC2)c2ccccc2)c2nn[nH]c2n1` (some centres unmarked) [Example 141, 7-(1-phenyl-3-{[(1s,4s)-4-(pyridin-4-yl)cyclohexyl]amino}propyl)-3H-[1,2,3]triazolo [4,5-b]pyridin-5-amine], the half-inhibitory concentration (IC50) in test [1] and in test [2] was 101 to 999 nM throughout.
As for `COc1ccc(CNCCC(c2ccccc2)c2cc(N)nc3[nH]nnc23)cc1` (centres unmarked) [Example 175, 7-(3-{[(4-methoxyphenyl)methyl]amino}-1-phenylpropyl)-3H-[1,2,3]triazolo [4,5-b]pyridin-5-amine], the half-maximal inhibitory concentration (IC50) in test [1] and in test [2] was 101 to 999 nM in each case.
Consider `COc1cccc(C(CCN[C@H]2CC[C@H](c3ccccc3)CC2)c2cc(N)nc3[nH]nnc23)c1` (stereo partly drawn) [Example 158, 7-[1-(3-methoxyphenyl)-3-{[(trans)-4-phenylcyclohexyl]amino}propyl]-3H-[1,2,3]triazolo [4,5-b]pyridin-5-amine], for which the IC50 fell in the range of 101 to 999 nM in test [1] and 1 to 100 nM in test [2].

These data come from patent publication US11008317B2, “Triazolopyridine inhibitors of myeloperoxidase and/or EPX” (priority 2016, dated 2021).
